The source of these data is patent US11098040B2, “Compounds and methods of use” (Ferro Therapeutics, Inc., priority 2018, dated 2021).

A value given as a limit tells only on which side of the number the result lay.

For the first series, the system named is KP4. In words: Cell viability assay (CellTiter Glo), pancreatic ductal adenocarcinoma KP4. The class given is cell-based, human. The conditions noted are these: Homo sapiens, KP-4, 96 h, pancreatic cancer cell line KP4, 96 hours, CellTiter Glo; read-out: IC50 μM KP4. How it is done: (§1) Cell viability assay was performed to assess the potency of the compounds in human cancer cell lines KP4 (pancreatic ductal adenocarcinoma), MiaPaCa-2 (pancreatic carcinoma), AsPC-1 (pancreatic adenocarcinoma, ascites), 143B (osteosarcoma), and SJSA-1 (osteosarcoma). Selected compounds were also assayed in a human breast epithelial cell line MCF-10A, a nontumorigenic cell line as a control to assess differential activity. Cells at a density of 500-5,000 cells/well were seeded in 96-well plates and incubated at 37° C. overnight. A series of 9 different concentrations of compound stocks (500×) were created by 3-fold serial dilution in DMSO. These compounds were further diluted in culture media and then added to cells so that the final DMSO concentration was equal to 0.25% or less. After 96 hours of incubation, 50 μL of CellTiter Glo reagent (Promega) was added to each well and luminescence was measured after 10 minutes using EnVision (PerkinElmer). Compounds titrated from top concentration of up to 30 μM. The select compounds were tested initially from 30 μM as the top concentration in duplicates (range of 4.6 nM-30 μM). […] Luminescence from cells treated with DMSO alone was set as Max and % of inhibition was calculated as follows: Inhibition %=(Max-Sample value)/Max*100. Data was analyzed using XL-fit software (ID Business Solutions Ltd.). IC50, relative IC50, or % of top inhibition was calculated.
as §1, with “in” for “in human”, “line” for “lines”, “adenocarcinoma).” for “adenocarcinoma), MiaPaCa-2 (pancreatic carcinoma), AsPC-1 (pancreatic adenocarcinoma, ascites), 143B (osteosarcoma), and SJSA-1 (osteosarcoma). Selected compounds were also assayed in a human breast epithelial cell line MCF-10A, a nontumorigenic cell line as a control to assess differential activity.”, “1,000-10,000” for “500-5,000”, “All” for “Compounds titrated from top concentration of up to 30 μM. The select”
(§2) The results of the assay on stability in blood and IC50 values for pancreatic cancer cell line KP4 are given below in Table 24.
Take `COC(=O)[C@H]1Cc2c([nH]c3ccccc23)[C@H](c2ccc(OC(C)=O)cc2)N1C(=O)CCl` [Compound 12]: the concentration for half-maximal inhibition (IC50) lay within 0.01 to 0.1 µM.

Take `COC(=O)[C@H]1Cc2c([nH]c3ccccc23)[C@H](c2ccc(OC(=O)C(C)(C)C)cc2)N1C(=O)CCl` [Compound 13]: the IC50 was in the range of 0.1 to 0.5 µM.

Turning to `COC(=O)[C@H]1Cc2c([nH]c3ccccc23)[C@@H](c2ccc(OC(=O)C(C)(C)C)cc2)N1C(=O)CCl` [Compound 13a], the 50% inhibitory concentration (IC50) lay within 0.5 to 1 µM.

`COC(=O)[C@H]1Cc2c([nH]c3ccccc23)[C@H](c2ccc(C(=O)NCCN)cc2)N1C(=O)CCl` [Compound 15]: the IC50 was in the range of 0.1 to 0.5 µM.

Regarding `COC(=O)[C@H]1Cc2c([nH]c3ccccc23)[C@H](c2ccc(C(=O)NCCNC(=O)OC(C)(C)C)cc2)N1C(=O)CCl` [Compound 16], the IC50 was less than 0.01 µM.

As to `CC(C)(C)OC(=O)c1ccc([C@H]2c3[nH]c4ccccc4c3C[C@H](C(=O)OC(C)(C)C)N2C(=O)CCl)cc1` [Compound 19], the IC50 is less than 0.01 µM.

Tested on in another series: not listed separately
Briefly: Whole blood stability, mouse. It counts as in vitro ADME. Particulars: 0 min.
Excerpt: as §2
Consider `COC(=O)[C@H]1Cc2c([nH]c3ccccc23)[C@H](c2ccc(OC(C)=O)cc2)N1C(=O)CCl` [Compound 12], for which the “Whole Blood Stability % Remaining at 37° C. Mouse” value came to 100.0%.

Take `COC(=O)[C@H]1Cc2c([nH]c3ccccc23)[C@H](c2ccc(OC(=O)C(C)(C)C)cc2)N1C(=O)CCl` [Compound 13]: the “Whole Blood Stability % Remaining at 37° C. Mouse” value amounted to 100.0%.

Take `COC(=O)[C@H]1Cc2c([nH]c3ccccc23)[C@@H](c2ccc(OC(=O)C(C)(C)C)cc2)N1C(=O)CCl` [Compound 13a]: the “Whole Blood Stability % Remaining at 37° C. Mouse” value stood at 100.0%.

In the case of `COC(=O)[C@H]1Cc2c([nH]c3ccccc23)[C@H](c2ccc(C(=O)NCCN)cc2)N1C(=O)CCl` [Compound 15], the “Whole Blood Stability % Remaining at 37° C. Mouse” value came to 100.0%.

`COC(=O)[C@H]1Cc2c([nH]c3ccccc23)[C@H](c2ccc(C(=O)NCCNC(=O)OC(C)(C)C)cc2)N1C(=O)CCl` [Compound 16]: the “Whole Blood Stability % Remaining at 37° C. Mouse” value worked out at 100.0%.

For the molecule `CC(C)(C)OC(=O)c1ccc([C@H]2c3[nH]c4ccccc4c3C[C@H](C(=O)OC(C)(C)C)N2C(=O)CCl)cc1` [Compound 19], the “Whole Blood Stability % Remaining at 37° C. Mouse” value turned out to be 100.0%.

Staying with this series, now noted: 30 min.
On to `COC(=O)[C@H]1Cc2c([nH]c3ccccc23)[C@H](c2ccc(OC(C)=O)cc2)N1C(=O)CCl` [Compound 12], for which the “Whole Blood Stability % Remaining at 37° C. Mouse” value is listed as 0.0%.

As for `COC(=O)[C@H]1Cc2c([nH]c3ccccc23)[C@H](c2ccc(OC(=O)C(C)(C)C)cc2)N1C(=O)CCl` [Compound 13], the “Whole Blood Stability % Remaining at 37° C. Mouse” value was determined as 0.0%.

Regarding `COC(=O)[C@H]1Cc2c([nH]c3ccccc23)[C@@H](c2ccc(OC(=O)C(C)(C)C)cc2)N1C(=O)CCl` [Compound 13a], the “Whole Blood Stability % Remaining at 37° C. Mouse” value is recorded as 0.0%.

On to `COC(=O)[C@H]1Cc2c([nH]c3ccccc23)[C@H](c2ccc(C(=O)NCCN)cc2)N1C(=O)CCl` [Compound 15], for which the “Whole Blood Stability % Remaining at 37° C. Mouse” value turned out to be 83.0%.

Consider `COC(=O)[C@H]1Cc2c([nH]c3ccccc23)[C@H](c2ccc(C(=O)NCCNC(=O)OC(C)(C)C)cc2)N1C(=O)CCl` [Compound 16], for which the “Whole Blood Stability % Remaining at 37° C. Mouse” value is recorded as 84.1%.

As for `CC(C)(C)OC(=O)c1ccc([C@H]2c3[nH]c4ccccc4c3C[C@H](C(=O)OC(C)(C)C)N2C(=O)CCl)cc1` [Compound 19], the “Whole Blood Stability % Remaining at 37° C. Mouse” value was 44.5%.

The series is the same for the next values; noted with them: 60 min.
In the case of `COC(=O)[C@H]1Cc2c([nH]c3ccccc23)[C@H](c2ccc(OC(C)=O)cc2)N1C(=O)CCl` [Compound 12], the “Whole Blood Stability % Remaining at 37° C. Mouse” value is recorded as 0.0%.

Turning to `COC(=O)[C@H]1Cc2c([nH]c3ccccc23)[C@H](c2ccc(OC(=O)C(C)(C)C)cc2)N1C(=O)CCl` [Compound 13], the “Whole Blood Stability % Remaining at 37° C. Mouse” value was 0.0%.

Turning to `COC(=O)[C@H]1Cc2c([nH]c3ccccc23)[C@@H](c2ccc(OC(=O)C(C)(C)C)cc2)N1C(=O)CCl` [Compound 13a], the “Whole Blood Stability % Remaining at 37° C. Mouse” value came to 0.0%.

Take `COC(=O)[C@H]1Cc2c([nH]c3ccccc23)[C@H](c2ccc(C(=O)NCCN)cc2)N1C(=O)CCl` [Compound 15]: the “Whole Blood Stability % Remaining at 37° C. Mouse” value is given as 50.2%.

In the case of `COC(=O)[C@H]1Cc2c([nH]c3ccccc23)[C@H](c2ccc(C(=O)NCCNC(=O)OC(C)(C)C)cc2)N1C(=O)CCl` [Compound 16], the “Whole Blood Stability % Remaining at 37° C. Mouse” value is 63.3%.

Take `CC(C)(C)OC(=O)c1ccc([C@H]2c3[nH]c4ccccc4c3C[C@H](C(=O)OC(C)(C)C)N2C(=O)CCl)cc1` [Compound 19]: the “Whole Blood Stability % Remaining at 37° C. Mouse” value is 21.2%.

Tested on in another series: not listed separately
In words: Whole blood stability, human. It counts as in vitro ADME. Particulars: 0 min.
Excerpt: as §2
`COC(=O)[C@H]1Cc2c([nH]c3ccccc23)[C@H](c2ccc(OC(C)=O)cc2)N1C(=O)CCl` [Compound 12]: the “Whole Blood Stability % Remaining at 37° C. Human” value came out at 100.0%.

As to `COC(=O)[C@H]1Cc2c([nH]c3ccccc23)[C@H](c2ccc(OC(=O)C(C)(C)C)cc2)N1C(=O)CCl` [Compound 13], the “Whole Blood Stability % Remaining at 37° C. Human” value was found to be 100.0%.

As for `COC(=O)[C@H]1Cc2c([nH]c3ccccc23)[C@@H](c2ccc(OC(=O)C(C)(C)C)cc2)N1C(=O)CCl` [Compound 13a], the “Whole Blood Stability % Remaining at 37° C. Human” value was 100.0%.

`COC(=O)[C@H]1Cc2c([nH]c3ccccc23)[C@H](c2ccc(C(=O)NCCN)cc2)N1C(=O)CCl` [Compound 15]: the “Whole Blood Stability % Remaining at 37° C. Human” value worked out at 100.0%.

Turning to `COC(=O)[C@H]1Cc2c([nH]c3ccccc23)[C@H](c2ccc(C(=O)NCCNC(=O)OC(C)(C)C)cc2)N1C(=O)CCl` [Compound 16], the “Whole Blood Stability % Remaining at 37° C. Human” value came to 100.0%.

`CC(C)(C)OC(=O)c1ccc([C@H]2c3[nH]c4ccccc4c3C[C@H](C(=O)OC(C)(C)C)N2C(=O)CCl)cc1` [Compound 19]: the “Whole Blood Stability % Remaining at 37° C. Human” value was determined as 100.0%.

Staying with this series, now noted: 30 min.
As for `COC(=O)[C@H]1Cc2c([nH]c3ccccc23)[C@H](c2ccc(OC(C)=O)cc2)N1C(=O)CCl` [Compound 12], the “Whole Blood Stability % Remaining at 37° C. Human” value came out at 0.0%.

Turning to `COC(=O)[C@H]1Cc2c([nH]c3ccccc23)[C@H](c2ccc(OC(=O)C(C)(C)C)cc2)N1C(=O)CCl` [Compound 13], the “Whole Blood Stability % Remaining at 37° C. Human” value is given as 34.9%.

`COC(=O)[C@H]1Cc2c([nH]c3ccccc23)[C@@H](c2ccc(OC(=O)C(C)(C)C)cc2)N1C(=O)CCl` [Compound 13a]: the “Whole Blood Stability % Remaining at 37° C. Human” value worked out at 56.6%.

On to `COC(=O)[C@H]1Cc2c([nH]c3ccccc23)[C@H](c2ccc(C(=O)NCCN)cc2)N1C(=O)CCl` [Compound 15], for which the “Whole Blood Stability % Remaining at 37° C. Human” value is given as 72.7%.

For the molecule `COC(=O)[C@H]1Cc2c([nH]c3ccccc23)[C@H](c2ccc(C(=O)NCCNC(=O)OC(C)(C)C)cc2)N1C(=O)CCl` [Compound 16], the “Whole Blood Stability % Remaining at 37° C. Human” value is listed as 54.3%.

Regarding `CC(C)(C)OC(=O)c1ccc([C@H]2c3[nH]c4ccccc4c3C[C@H](C(=O)OC(C)(C)C)N2C(=O)CCl)cc1` [Compound 19], the “Whole Blood Stability % Remaining at 37° C. Human” value turned out to be 44.4%.

Staying with this series, now noted: 60 min.
As to `COC(=O)[C@H]1Cc2c([nH]c3ccccc23)[C@H](c2ccc(OC(C)=O)cc2)N1C(=O)CCl` [Compound 12], the “Whole Blood Stability % Remaining at 37° C. Human” value is 0.1%.

For `COC(=O)[C@H]1Cc2c([nH]c3ccccc23)[C@H](c2ccc(OC(=O)C(C)(C)C)cc2)N1C(=O)CCl` [Compound 13], the “Whole Blood Stability % Remaining at 37° C. Human” value was determined as 29.2%.

For `COC(=O)[C@H]1Cc2c([nH]c3ccccc23)[C@@H](c2ccc(OC(=O)C(C)(C)C)cc2)N1C(=O)CCl` [Compound 13a], the “Whole Blood Stability % Remaining at 37° C. Human” value was 59.9%.

For `COC(=O)[C@H]1Cc2c([nH]c3ccccc23)[C@H](c2ccc(C(=O)NCCN)cc2)N1C(=O)CCl` [Compound 15], the “Whole Blood Stability % Remaining at 37° C. Human” value was determined as 66.8%.

Regarding `COC(=O)[C@H]1Cc2c([nH]c3ccccc23)[C@H](c2ccc(C(=O)NCCNC(=O)OC(C)(C)C)cc2)N1C(=O)CCl` [Compound 16], the “Whole Blood Stability % Remaining at 37° C. Human” value turned out to be 36.9%.

Consider `CC(C)(C)OC(=O)c1ccc([C@H]2c3[nH]c4ccccc4c3C[C@H](C(=O)OC(C)(C)C)N2C(=O)CCl)cc1` [Compound 19], for which the “Whole Blood Stability % Remaining at 37° C. Human” value is 35.6%.
